Source: PubChem BioAssay (NCI)
“And” between values parts separate entries of the source, which are not always exact repeats. Equal values may be shown once.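 Exposure lasted 48 hours, with cells grown in 96-well plates and compounds tested at five concentrations. The concentration for 50% growth inhibition is given as GI50. Definition used: TGI = concentration required for complete inhibition of growth.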

How the values were obtained:
Experiment in all cases: NCI anticancer screen, dose series, 48 h
M14 melanoma = tested on: M14 melanoma
MALME-3M melanoma = tested on: MALME-3M melanoma
NCI-H226 lung = tested on: NCI-H226 lung
NCI-H522 lung = tested on: NCI-H522 lung
OVCAR-3 ovarian = tested on: OVCAR-3 ovarian
SF-268 CNS = tested on: SF-268 CNS
SK-MEL-2 melanoma = tested on: SK-MEL-2 melanoma
SNB-19 CNS = tested on: SNB-19 CNS
TK-10 renal = tested on: TK-10 renal
UO-31 renal = tested on: UO-31 renal

SMILES | GI50 (M14 melanoma) | TGI (M14 melanoma) | GI50 (MALME-3M melanoma) | TGI (MALME-3M melanoma) | GI50 (NCI-H226 lung) | TGI (NCI-H226 lung) | GI50 (NCI-H522 lung) | TGI (NCI-H522 lung) | GI50 (OVCAR-3 ovarian) | TGI (OVCAR-3 ovarian) | GI50 (SF-268 CNS) | TGI (SF-268 CNS) | GI50 (SK-MEL-2 melanoma) | TGI (SK-MEL-2 melanoma) | GI50 (SNB-19 CNS) | TGI (SNB-19 CNS) [µM] | GI50 (TK-10 renal) | TGI (TK-10 renal) | GI50 (UO-31 renal) | TGI (UO-31 renal)
CCS(=O)(=O)c1ccc(OC)c(Nc2ncc(-c3cccc(-c4ccccc4F)c3)o2)c1 | > 25 µM | > 25 µM | > 25 µM | > 25 µM | 2.24 µM | > 25 µM | 10.6 µM | > 25 µM | 15.7 µM | > 25 µM | 15.1 µM | > 25 µM | > 25 µM | > 25 µM | > 17.2 µM | > 25 | 7.32 µM | > 25 µM | 1.48 µM | 20.3 µM
Cc1oncc1C(=O)Nc1ccc(C(F)(F)F)cc1 | 68.2 µM | > 100 µM | 20.5 µM | > 100 µM | 35.1 µM | > 100 µM | 33.6 µM | > 100 µM | 20.8 µM | 78.7 µM | 23 µM | > 100 µM | > 100 µM | > 100 µM | > 100 µM | > 100 | > 100 µM | > 100 µM | 12.6 µM | > 100 µM
Clc1cccc(Cn2cc(Cc3cn(Cc4cccc(Cl)c4)c4ccccc34)c3ccccc32)c1 | > 100 µM | > 100 µM | > 100 µM | > 100 µM | 10.1 µM | 59 µM | 45.5 µM | > 100 µM | > 100 µM | > 100 µM | > 100 µM | > 100 µM | > 100 µM | > 100 µM | > 100 µM | > 100 | 92.6 µM | > 100 µM | 10.5 µM | > 100 µM
C[C@@]12CCC[C@@](C)(C(=O)O)C1CC[C@]13C=C(CO)[C@](O)(CCC12)C3 (some centres undefined) | > 100 µM | > 100 µM | > 100 µM | > 100 µM | > 100 µM | > 100 µM | > 100 µM | > 100 µM | > 100 µM | > 100 µM | > 100 µM | > 100 µM | > 100 µM | > 100 µM | > 100 µM | > 100 | > 100 µM | > 100 µM | > 100 µM | > 100 µM
CNC(=O)c1cc(Oc2ccc3nc(NC(=O)c4cc(C(F)(F)F)cc(C(F)(F)F)c4)sc3c2)ccn1 | 3.61 µM | 19.4 µM | 2.03 µM | 6.65 µM | 4.15 µM | 17.4 µM | 2.82 µM | 8.77 µM | 2.32 µM | 6.64 µM | 2.66 µM | 17 µM | 2.32 µM | 6.7 µM | 3.76 µM | 22.8 | 3.37 µM | 13.3 µM | 2.19 µM | 8.95 µM
COC(=O)C(=C\Sc1ccccc1)/C=C/C(=O)OC(C)(C)C |  | 21.2 µM |  | 30.7 µM |  | 30.9 µM |  | 9.9 µM |  | 17 µM |  | 31.8 µM |  | 24.8 µM |  | 15.3 |  | 30.8 µM |  | 29.5 µM
COc1cc2c3c(n(CCCN=[N+]=[N-])c(=O)c2cc1OC)-c1ccc(N)cc1C3=O | 0.0591 µM | 0.237 µM | 0.804 µM | 4.63 µM | 0.249 µM | 1.16 µM | 0.133 µM | 0.983 µM | 0.249 µM | 0.923 µM | 0.34 µM | > 32.4 µM | 0.622 µM | 1.55 µM | 0.125 µM |  | 0.71 µM | 3.93 µM | 0.146 µM | 0.803 µM
S=c1cn[nH]c2ccc(Br)cc12 |  | > 100 µM |  | 79 µM |  | > 100 µM |  | 91.6 µM |  | > 100 µM |  | > 100 µM |  | 71.3 µM |  | > 100 |  | > 100 µM |  | > 100 µM
CC(/C=C/C=C/C=C/C=C/C=C/C(O)=C1/C(=O)C(CCC(=O)O)N(C)C1=O)=C\C(C)C(OC1CC(O)C(O)C(C)O1)C(C)C (centres undefined) |  | 15.2 µM |  | 8.4 µM |  | 11.8 µM |  | 7.35 µM |  | 5.12 µM |  | 14 µM |  | 12.9 µM |  | 9.44 |  | 7.92 µM |  | 13.5 µM
Nc1ccccc1S(=O)c1ccccc1 (centres undefined) |  | > 100 µM |  | > 100 µM |  | > 100 µM |  | > 100 µM |  | > 100 µM |  | > 100 µM |  | > 100 µM |  | > 100 |  | > 100 µM |  | > 100 µM
S=C(Nc1ccc(-c2nc3ccccc3s2)cc1)Nc1ccccn1 | 25.2 µM | 60.9 µM | 28.6 µM | 73.9 µM | 26.4 µM | > 76.2 µM | 24.7 µM | > 61.3 µM | 18.7 µM | > 53.9 µM | 46.6 µM | > 100 µM | 22.7 µM | 50.3 µM | 36.1 µM | > 100 | 24.1 µM | 70.2 µM | 19.6 µM | > 68.9 µM
O=C(/C=C/c1ccccc1Cl)c1ccc(O)cc1 | 10.6 µM | 24.6 µM | 16.3 µM | 31.1 µM | 15.2 µM | 42.8 µM | 9.33 µM | 23.9 µM | 3.46 µM | 9.22 µM | 8.91 µM | 25.3 µM | 15 µM | 31.2 µM | 6.95 µM | 19.6 | 18.1 µM | 32.4 µM | 4.85 µM | 14 µM
CCN(CC)CCC(CNc1c2ccc([N+](=O)[O-])cc2nc2cc(OC)c(OC)cc12)c1ccccc1 (centres undefined) | 0.335 µM and 0.305 µM | 1.4 µM and 1.23 µM | 0.201 µM and 0.191 µM | 0.454 µM and 0.479 µM | 0.26 µM and 0.329 µM | 0.869 µM and 1.47 µM | 0.345 µM and 0.166 µM | 1.46 µM and 0.435 µM | 0.269 µM and 0.0927 µM | 1.01 µM and 0.335 µM | 0.238 µM and 0.109 µM | 1.29 µM and 0.573 µM | 0.229 µM and 0.0816 µM | 0.609 µM and 0.253 µM | 0.214 µM and 0.177 µM | 1.24 | 1.04 µM and 0.485 µM | 2.27 µM and 1.62 µM | 1.1 µM and 0.956 µM | 2.43 µM and 2.6 µM
Nc1cccc(-c2nc3sccn3c2-c2ccnc(NCCCNS(=O)(=O)c3ccc(C(F)(F)F)cc3)n2)c1 | 3.89 µM | 15.3 µM | 3.94 µM | 18 µM | 3.14 µM | 16.5 µM | 3.35 µM | 18.2 µM | 3.87 µM | 23.4 µM | 3.97 µM | 49.6 µM | 4.66 µM | 23.4 µM | 8.33 µM | > 100 | 11.1 µM | > 100 µM | 3.2 µM | 27.5 µM
